According to US12539292B2, “BRM targeting compounds and associated methods of use” (Arvinas Operations, Inc., priority 2018, dated 2026):
Read-outs that look alike come from different tables or passages of the source.

Target: T1, BRM (Homo sapiens, UniProt P51531)
T1 construct: In-Cell Western Screen of BRM Degradation in SW1573 Cells; endogenous in cells; host or cells: SW1573
Experiment: In-cell Western screen of BRM degradation in SW1573 cells (Dmax and DC50)
Type: cell-based
Procedure, shortened: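 Near-infrared imaging on a LI-COR Odyssey (800 and 680 nm channels) quantifies BRM remaining in fixed SW1573 cells. Cells are dosed for 18-20 h at 0.1% final DMSO, and degradation is expressed as Dmax and DC50.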

[1] = SW1573, % degraded, when tested at the top concentration of between 0.3 and 10 μM, read-out: BRM Dmax (%)
[2] = target protein degradation, read-out: BRM DC50
[3] = BRM degradation, SW1573 cells, read-out: DC50
[4] = BRM degradation, SW1573 cells, when tested at the top concentration of between 0.3 and 10 μM, read-out: Dmax (%) (% degraded)

T1 sequence (P51531 whole entry): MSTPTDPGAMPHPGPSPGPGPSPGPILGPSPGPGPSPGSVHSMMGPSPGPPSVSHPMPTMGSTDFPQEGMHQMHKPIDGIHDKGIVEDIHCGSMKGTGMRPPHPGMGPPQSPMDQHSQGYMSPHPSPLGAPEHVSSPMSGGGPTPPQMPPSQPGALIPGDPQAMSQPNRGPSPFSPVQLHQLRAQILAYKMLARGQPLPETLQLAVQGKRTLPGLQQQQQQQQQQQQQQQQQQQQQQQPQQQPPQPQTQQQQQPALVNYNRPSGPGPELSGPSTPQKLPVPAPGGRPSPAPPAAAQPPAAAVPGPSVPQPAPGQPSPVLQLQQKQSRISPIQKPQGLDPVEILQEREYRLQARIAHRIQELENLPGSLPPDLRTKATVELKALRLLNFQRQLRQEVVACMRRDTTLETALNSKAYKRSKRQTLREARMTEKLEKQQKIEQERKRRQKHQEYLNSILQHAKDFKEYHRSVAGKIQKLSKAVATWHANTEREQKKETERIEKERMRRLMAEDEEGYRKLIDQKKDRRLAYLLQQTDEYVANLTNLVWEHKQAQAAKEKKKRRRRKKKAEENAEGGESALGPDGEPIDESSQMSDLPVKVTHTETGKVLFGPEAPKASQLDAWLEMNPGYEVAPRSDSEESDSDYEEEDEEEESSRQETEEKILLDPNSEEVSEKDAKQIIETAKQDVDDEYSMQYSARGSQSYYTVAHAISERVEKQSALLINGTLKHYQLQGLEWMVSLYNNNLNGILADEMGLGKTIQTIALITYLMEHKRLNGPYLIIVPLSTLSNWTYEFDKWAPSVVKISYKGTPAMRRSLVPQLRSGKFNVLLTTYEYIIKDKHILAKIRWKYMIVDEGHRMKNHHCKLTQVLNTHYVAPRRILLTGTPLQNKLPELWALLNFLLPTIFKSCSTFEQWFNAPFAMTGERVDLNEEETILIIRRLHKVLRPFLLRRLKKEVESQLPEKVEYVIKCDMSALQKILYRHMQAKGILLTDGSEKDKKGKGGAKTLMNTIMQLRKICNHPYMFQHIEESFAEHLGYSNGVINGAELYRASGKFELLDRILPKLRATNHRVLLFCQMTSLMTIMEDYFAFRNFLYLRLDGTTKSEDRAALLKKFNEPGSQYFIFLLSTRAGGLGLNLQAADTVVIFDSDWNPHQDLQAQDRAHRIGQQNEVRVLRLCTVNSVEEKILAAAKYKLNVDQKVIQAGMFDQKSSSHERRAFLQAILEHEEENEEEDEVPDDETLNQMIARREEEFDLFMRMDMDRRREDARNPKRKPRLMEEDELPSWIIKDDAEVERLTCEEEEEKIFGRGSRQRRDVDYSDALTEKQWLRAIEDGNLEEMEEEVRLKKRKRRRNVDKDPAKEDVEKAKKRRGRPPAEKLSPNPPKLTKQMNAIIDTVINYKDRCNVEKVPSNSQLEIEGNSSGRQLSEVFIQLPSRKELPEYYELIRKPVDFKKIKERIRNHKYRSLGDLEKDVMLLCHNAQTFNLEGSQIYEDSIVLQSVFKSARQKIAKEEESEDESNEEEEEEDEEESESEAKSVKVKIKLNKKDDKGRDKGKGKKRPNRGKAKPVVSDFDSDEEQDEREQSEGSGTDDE

## Cc1ncsc1-c1ccc([C@H](C)NC(=O)[C@@H]2C[C@@H](O)CN2C(=O)[C@H](c2cc(OCCN3CCC(O[C@H]4C[C@H](Oc5cc(N6C7CCC6CN(c6cc(-c8ccccc8O)nnc6N)C7)ccn5)C4)CC3)no2)C(C)C)nc1 [compound 367, (2S,4R)-1-((2S)-2-(3-(2-(4-((1r,3S)-3-((4-(3-(3-amino-6-(2-hydroxyphenyl)pyridazin-4-yl)-3,8-diazabicyclo[3.2.1]octan-8-yl)pyridin-2-yl)oxy)cyclobutoxy)piperidin-1-yl)ethoxy)isoxazol-5-yl)-3-methylbutanoyl)-4-hydroxy-N-((S)-1-(5-(4-methylthiazol-5-yl)pyridin-2-yl)ethyl)pyrrolidine-2-carboxamide]
[1]
  Dmax: > 75%
[2]
  DC50: > 0.03 µM

## Cc1ncsc1-c1ccc([C@H](C)NC(=O)[C@@H]2C[C@@H](O)CN2C(=O)[C@H](c2cc(N3CCN(C[C@H]4C[C@H](Oc5cc(N6C7CCC6CN(c6cc(-c8ccccc8O)nnc6N)C7)ccn5)C4)CC3)no2)C(C)C)cc1 [compound 498, (2S,4R)-1-((2S)-2-(3-(4-(((1r,3S)-3-((4-(3-(3-amino-6-(2-hydroxyphenyl)pyridazin-4-yl)-3,8-diazabicyclo[3.2.1]octan-8-yl)pyridin-2-yl)oxy)cyclobutyl)methyl)piperazin-1-yl)isoxazol-5-yl)-3-methylbutanoyl)-4-hydroxy-N-((S)-1-(4-(4-methylthiazol-5-yl)phenyl)ethyl)pyrrolidine-2-carboxamide]
BRM degradation, read-out: BRM DC50
  DC50: > 0.03 µM

## Cc1ncsc1-c1ccc([C@H](C)NC(=O)[C@@H]2C[C@@H](O)CN2C(=O)[C@H](c2cc(OCCCN3CCC(O[C@H]4C[C@H](Oc5cc(N6C7CCC6CN(c6cc(-c8ccccc8O)nnc6N)C7)ccn5)C4)CC3)no2)C(C)C)cc1 [compound 217, (2S,4R)-1-((2S)-2-(3-(3-(4-((1r,3S)-3-((4-(3-(3-amino-6-(2-hydroxyphenyl)pyridazin-4-yl)-3,8-diazabicyclo[3.2.1]octan-8-yl)pyridin-2-yl)oxy)cyclobutoxy)piperidin-1-yl)propoxy)isoxazol-5-yl)-3-methylbutanoyl)-4-hydroxy-N-((S)-1-(4-(4-methylthiazol-5-yl)phenyl)ethyl)pyrrolidine-2-carboxamide]
[3]
  DC50: 0.0025 to 0.01 µM
BRM degradation, SW1573 cells, tested at the top concentration of between 0.3 and 10 μM, read-out: Dmax (%) (% degraded)
  Dmax: > 75%

## Cc1ncsc1-c1ccc([C@H](C)NC(=O)[C@@H]2C[C@@H](O)CN2C(=O)[C@@H](NC(=O)Cc2ccc(N3CCN(CCOCCCc4cc(N5C6CCC5CN(c5cc(-c7ccccc7O)nnc5N)C6)ccn4)CC3)nc2)C(C)(C)C)cc1 [compound 50, (2S,4R)-1-[(2S)-2-[2-[6-(4-[2-[3-(4-[3-[3-amino-6-(2-hydroxyphenyl)pyridazin-4-yl]-3,8-diazabicyclo[3.2.1]octan-8-yl]pyridin-2-yl)propoxy]ethyl]piperazin-1-yl)pyridin-3-yl]acetamido]-3,3-dimethylbutanoyl]-4-hydroxy-N-[(1S)-1-[4-(4-methyl-1,3-thiazol-5-yl)phenyl]ethyl]pyrrolidine-2-carboxamide]
[3]
  DC50: 0.01 to 0.03 µM
[4]
  Dmax: > 75%

## Cc1ncsc1-c1ccc(CNC(=O)[C@@H]2C[C@@H](O)CN2C(=O)[C@@H](NC(=O)COCCOCCOCCOCCOCCOCCOCCn2cc(-c3cc(-c4ccccc4O)nnc3N)cn2)C(C)(C)C)cc1 [compound 5, (2S,4R)-1-((S)-26-(4-(3-amino-6-(2-hydroxyphenyl)pyridazin-4-yl)-1H-pyrazol-1-yl)-2-(tert-butyl)-4-oxo-6,9,12,15,18,21,24-heptaoxa-3-azahexacosanoyl)-4-hydroxy-N-(4-(4-methylthiazol-5-yl)benzyl)pyrrolidine-2-carboxamide]
[3]
  DC50: > 0.03 µM
[4]
  Dmax: > 75%

## Cc1ncsc1-c1ccc([C@H](C)NC(=O)[C@@H]2C[C@@H](O)CN2C(=O)[C@H](c2cc(OCC[C@@H]3CCN(C[C@H]4C[C@H](Oc5cc(N6C7CCC6CN(c6cc(-c8ccccc8O)nnc6N)C7)ccn5)C4)C[C@@H]3C)no2)C(C)C)cc1 (racemic) [compound 543, (2S,4R)-1-((2S)-2-(3-(2-((3R,4S)-1-(((1r,3R)-3-((4-(3-(3-amino-6-(2-hydroxyphenyl)pyridazin-4-yl)-3,8-diazabicyclo[3.2.1]octan-8-yl)pyridin-2-yl)oxy)cyclobutyl)methyl)-3-methylpiperidin-4-yl)ethoxy)isoxazol-5-yl)-3-methylbutanoyl)-4-hydroxy-N-((S)-1-(4-(4-methylthiazol-5-yl)phenyl)ethyl)pyrrolidine-2-carboxamide]
BRM degradation, SW1573 cells, Table 2D, read-out: *DC50
  DC50: > 0.03 µM

## CC(C)[C@H](C(=O)N1C[C@H](O)C[C@H]1C(=O)N[C@@H](C)c1ccc(-n2ccnn2)cc1)c1cc(OCCN2CCN(CCOc3cc(N4C5CCC4CN(c4cc(-c6ccccc6O)nnc4N)C5)ccn3)CC2)no1 [compound 292, (2S,4R)-N-((S)-1-(4-(1H-1,2,3-triazol-1-yl)phenyl)ethyl)-1-((2S)-2-(3-(2-(4-(2-((4-(3-(3-amino-6-(2-hydroxyphenyl)pyridazin-4-yl)-3,8-diazabicyclo[3.2.1]octan-8-yl)pyridin-2-yl)oxy)ethyl)piperazin-1-yl)ethoxy)isoxazol-5-yl)-3-methylbutanoyl)-4-hydroxypyrrolidine-2-carboxamide]
[3]
  DC50: > 0.03 µM

## Cc1nccn1-c1ccc([C@H](C)NC(=O)[C@@H]2C[C@@H](O)CN2C(=O)[C@@H](c2cc(N3CCC(OC4CCN(C[C@H]5C[C@H](Oc6cc(N7C8CCC7CN(c7cc(-c9ccccc9O)nnc7N)C8)ccn6)C5)CC4)CC3)no2)C(C)C)cc1 [compound 478, (2S,4R)-1-((2R)-2-(3-(4-((1-(((1r,3r)-3-((4-(3-(3-amino-6-(2-hydroxyphenyl)pyridazin-4-yl)-3,8-diazabicyclo[3.2.1]octan-8-yl)pyridin-2-yl)oxy)cyclobutyl)methyl)piperidin-4-yl)oxy)piperidin-1-yl)isoxazol-5-yl)-3-methylbutanoyl)-4-hydroxy-N-((S)-1-(4-(2-methyl-1H-imidazol-1-yl)phenyl)ethyl)pyrrolidine-2-carboxamide]
[1]
  Dmax: > 75%
[2]
  DC50: < 0.0025 µM

## Cc1ncsc1-c1ccc([C@H](C)NC(=O)[C@@H]2C[C@@H](O)CN2C(=O)[C@H](c2cc(OCC(=O)N3CCC(O[C@H]4C[C@H](Oc5cc(N6C7CCC6CN(c6cc(-c8ccccc8O)nnc6N)C7)ccn5)C4)CC3)no2)C(C)C)cn1 [compound 271, (2S,4R)-1-((2S)-2-(3-(2-(4-((1r,3S)-3-((4-(3-(3-amino-6-(2-hydroxyphenyl)pyridazin-4-yl)-3,8-diazabicyclo[3.2.1]octan-8-yl)pyridin-2-yl)oxy)cyclobutoxy)piperidin-1-yl)-2-oxoethoxy)isoxazol-5-yl)-3-methylbutanoyl)-4-hydroxy-N-((S)-1-(6-(4-methylthiazol-5-yl)pyridin-3-yl)ethyl)pyrrolidine-2-carboxamide]
[3]
  DC50: > 0.03 µM

## Cc1ncsc1-c1ccc([C@H](C)NC(=O)[C@@H]2C[C@@H](O)CN2C(=O)[C@@H](c2cc(N3CCC(CN4CCC(O[C@H]5C[C@H](Oc6cc(N7C8CCC7CN(c7cc(-c9ccccc9O)nnc7N)C8)ccn6)C5)CC4)CC3)no2)C(C)C)c(O)c1 [compound 690, (2S,4R)-1-((2R)-2-(3-(4-((4-((1r,3r)-3-((4-(3-(3-amino-6-(2-hydroxyphenyl)pyridazin-4-yl)-3,8-diazabicyclo[3.2.1]octan-8-yl)pyridin-2-yl)oxy)cyclobutoxy)piperidin-1-yl)methyl)piperidin-1-yl)isoxazol-5-yl)-3-methylbutanoyl)-4-hydroxy-N-((S)-1-(2-hydroxy-4-(4-methylthiazol-5-yl)phenyl)ethyl)pyrrolidine-2-carboxamide]
[3]
  DC50: < 0.0025 µM
BRM degradation, SW1573 cells, read-out: Dmax (% degraded)
  Dmax: > 75%
